Test [1] deals with ABL1 (Homo sapiens, UniProt P00519). In words: Kinobeads two-dose competition binding: ABL1. Conditions: sheet CATDS matrix 2; Gene Name ABL1.
Test [2] addresses T1, AAK1 (Homo sapiens, UniProt Q2M2I8).
T1 construct: to maximize the representation of endogenous proteins; endogenous in cells
In words: Kinobeads two-dose competition binding: AAK1.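 As to all read-outs here: kinobeads competition pulldown from cell lysate, compound preincubated 45 min at 4 °C, bead-bound protein measured by label-free mass spectrometry against DMSO vehicle control.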 Conditions: for CATDS: sheet CATDS matrix 2, Gene Name AAK1; for potency estimated from few doses: sheet "Kinobeads Drugmatrix - all", unit inferred, same values below 1000 recur in sheet "nanomolar", read-out: Kinobeads Drugmatrix - all: apparent Kd, AAK1.

For test [3], the target named is T2, ACOX1 (Homo sapiens, UniProt Q15067).
T2 construct: endogenous in cells
T2 sequence (Q15067 1-660): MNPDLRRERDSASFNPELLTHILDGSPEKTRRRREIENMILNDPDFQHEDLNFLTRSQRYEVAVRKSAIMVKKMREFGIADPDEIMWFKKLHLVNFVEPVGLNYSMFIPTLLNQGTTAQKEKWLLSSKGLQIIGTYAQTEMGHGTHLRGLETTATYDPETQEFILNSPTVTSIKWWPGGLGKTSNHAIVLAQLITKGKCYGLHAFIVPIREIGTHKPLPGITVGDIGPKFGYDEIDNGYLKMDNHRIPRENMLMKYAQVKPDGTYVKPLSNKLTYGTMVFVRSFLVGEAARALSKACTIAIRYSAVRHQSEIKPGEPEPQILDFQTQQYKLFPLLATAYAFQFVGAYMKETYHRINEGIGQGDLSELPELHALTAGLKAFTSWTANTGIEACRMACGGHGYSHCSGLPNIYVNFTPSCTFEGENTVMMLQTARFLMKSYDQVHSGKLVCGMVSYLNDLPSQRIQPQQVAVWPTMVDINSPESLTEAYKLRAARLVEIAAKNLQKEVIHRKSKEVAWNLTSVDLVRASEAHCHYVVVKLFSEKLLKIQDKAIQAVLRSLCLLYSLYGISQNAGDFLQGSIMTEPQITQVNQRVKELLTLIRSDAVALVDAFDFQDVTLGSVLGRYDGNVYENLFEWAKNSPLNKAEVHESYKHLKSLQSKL
As to the kind of experiment: Kinobeads two-dose competition binding: ACOX1.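 As to all read-outs here: competition of compounds with immobilized broad-spectrum kinase inhibitor beads in cell lysate at 100 and 1,000 nM, 45 min at 4 °C, bead-bound protein quantified by label-free MS versus DMSO.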 The conditions noted are these: for CATDS: sheet CATDS matrix 2, Gene Name ACOX1; for potency estimated from few doses: sheet "Kinobeads Drugmatrix -nanomolar" (only nanomolar interactions), read-out: Kinobeads Drugmatrix -nanomolar: apparent Kd, ACOX1.

The target in test [4] is T3, ACAD11 (Homo sapiens, UniProt Q709F0).
T3 construct: endogenous in cells
T3 sequence (Q709F0 1-780): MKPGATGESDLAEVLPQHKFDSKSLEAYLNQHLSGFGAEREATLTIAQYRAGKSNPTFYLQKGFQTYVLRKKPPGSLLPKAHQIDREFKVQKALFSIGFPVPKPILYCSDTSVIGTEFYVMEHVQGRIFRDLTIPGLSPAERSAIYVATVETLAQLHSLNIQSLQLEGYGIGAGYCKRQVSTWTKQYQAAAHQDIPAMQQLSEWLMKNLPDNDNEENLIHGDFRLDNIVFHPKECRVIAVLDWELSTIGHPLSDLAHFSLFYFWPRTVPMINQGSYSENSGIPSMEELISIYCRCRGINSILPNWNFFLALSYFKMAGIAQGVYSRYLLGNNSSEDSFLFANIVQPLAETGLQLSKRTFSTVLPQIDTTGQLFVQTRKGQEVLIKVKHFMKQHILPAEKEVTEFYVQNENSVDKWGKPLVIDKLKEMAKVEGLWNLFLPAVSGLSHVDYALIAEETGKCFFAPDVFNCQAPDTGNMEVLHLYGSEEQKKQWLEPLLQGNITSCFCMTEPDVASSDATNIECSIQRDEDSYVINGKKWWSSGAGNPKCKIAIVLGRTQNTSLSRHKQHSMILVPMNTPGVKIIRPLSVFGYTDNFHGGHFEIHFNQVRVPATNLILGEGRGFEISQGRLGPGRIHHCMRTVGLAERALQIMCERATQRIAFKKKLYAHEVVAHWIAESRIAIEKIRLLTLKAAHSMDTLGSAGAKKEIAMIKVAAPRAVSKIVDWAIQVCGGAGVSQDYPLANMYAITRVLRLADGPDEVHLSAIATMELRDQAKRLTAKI
As to the kind of experiment: Kinobeads two-dose competition binding: ACAD11. Conditions: sheet CATDS matrix 2; Gene Name ACAD11.

Test [5] has as its target T4, ABL2 (Homo sapiens, UniProt P42684).
T4 construct: endogenous in cells
In words: Kinobeads two-dose competition binding: ABL2. Conditions: sheet CATDS matrix 2; Gene Name ABL2.

The text below walks through data of paper PMC11062922 (Nature Chemical Biology, 2023).

A value given as a limit tells only on which side of the number the result lay.

T4 sequence (P42684 whole entry): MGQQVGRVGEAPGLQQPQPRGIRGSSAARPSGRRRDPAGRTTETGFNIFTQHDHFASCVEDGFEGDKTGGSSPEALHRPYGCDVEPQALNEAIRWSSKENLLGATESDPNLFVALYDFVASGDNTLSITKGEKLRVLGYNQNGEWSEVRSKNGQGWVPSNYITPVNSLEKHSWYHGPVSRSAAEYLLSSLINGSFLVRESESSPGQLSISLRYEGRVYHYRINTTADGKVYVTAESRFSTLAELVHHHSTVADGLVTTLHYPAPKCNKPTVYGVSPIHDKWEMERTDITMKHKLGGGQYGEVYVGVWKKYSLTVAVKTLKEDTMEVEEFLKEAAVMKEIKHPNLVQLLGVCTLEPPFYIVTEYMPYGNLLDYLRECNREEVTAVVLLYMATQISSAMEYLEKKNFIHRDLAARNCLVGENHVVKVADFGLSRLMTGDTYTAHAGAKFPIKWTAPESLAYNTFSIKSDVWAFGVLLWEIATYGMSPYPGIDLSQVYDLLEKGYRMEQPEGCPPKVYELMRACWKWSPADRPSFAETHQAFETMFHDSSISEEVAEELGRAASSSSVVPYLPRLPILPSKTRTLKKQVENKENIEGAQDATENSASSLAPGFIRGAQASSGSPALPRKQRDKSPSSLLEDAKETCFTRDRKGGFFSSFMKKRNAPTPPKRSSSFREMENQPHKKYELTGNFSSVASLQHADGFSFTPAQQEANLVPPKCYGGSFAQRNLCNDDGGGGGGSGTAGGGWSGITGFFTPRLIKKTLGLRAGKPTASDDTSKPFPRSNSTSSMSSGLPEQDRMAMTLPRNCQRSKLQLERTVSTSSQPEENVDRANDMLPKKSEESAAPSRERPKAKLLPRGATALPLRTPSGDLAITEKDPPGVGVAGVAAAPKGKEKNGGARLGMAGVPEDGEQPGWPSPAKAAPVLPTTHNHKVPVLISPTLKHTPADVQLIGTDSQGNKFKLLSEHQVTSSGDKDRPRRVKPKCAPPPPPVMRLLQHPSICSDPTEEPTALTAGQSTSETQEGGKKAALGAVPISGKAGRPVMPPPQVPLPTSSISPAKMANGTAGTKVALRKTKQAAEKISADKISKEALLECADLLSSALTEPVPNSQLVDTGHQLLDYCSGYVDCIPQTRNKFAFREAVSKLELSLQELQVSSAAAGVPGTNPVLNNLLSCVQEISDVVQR
T1 sequence (Q2M2I8 whole entry): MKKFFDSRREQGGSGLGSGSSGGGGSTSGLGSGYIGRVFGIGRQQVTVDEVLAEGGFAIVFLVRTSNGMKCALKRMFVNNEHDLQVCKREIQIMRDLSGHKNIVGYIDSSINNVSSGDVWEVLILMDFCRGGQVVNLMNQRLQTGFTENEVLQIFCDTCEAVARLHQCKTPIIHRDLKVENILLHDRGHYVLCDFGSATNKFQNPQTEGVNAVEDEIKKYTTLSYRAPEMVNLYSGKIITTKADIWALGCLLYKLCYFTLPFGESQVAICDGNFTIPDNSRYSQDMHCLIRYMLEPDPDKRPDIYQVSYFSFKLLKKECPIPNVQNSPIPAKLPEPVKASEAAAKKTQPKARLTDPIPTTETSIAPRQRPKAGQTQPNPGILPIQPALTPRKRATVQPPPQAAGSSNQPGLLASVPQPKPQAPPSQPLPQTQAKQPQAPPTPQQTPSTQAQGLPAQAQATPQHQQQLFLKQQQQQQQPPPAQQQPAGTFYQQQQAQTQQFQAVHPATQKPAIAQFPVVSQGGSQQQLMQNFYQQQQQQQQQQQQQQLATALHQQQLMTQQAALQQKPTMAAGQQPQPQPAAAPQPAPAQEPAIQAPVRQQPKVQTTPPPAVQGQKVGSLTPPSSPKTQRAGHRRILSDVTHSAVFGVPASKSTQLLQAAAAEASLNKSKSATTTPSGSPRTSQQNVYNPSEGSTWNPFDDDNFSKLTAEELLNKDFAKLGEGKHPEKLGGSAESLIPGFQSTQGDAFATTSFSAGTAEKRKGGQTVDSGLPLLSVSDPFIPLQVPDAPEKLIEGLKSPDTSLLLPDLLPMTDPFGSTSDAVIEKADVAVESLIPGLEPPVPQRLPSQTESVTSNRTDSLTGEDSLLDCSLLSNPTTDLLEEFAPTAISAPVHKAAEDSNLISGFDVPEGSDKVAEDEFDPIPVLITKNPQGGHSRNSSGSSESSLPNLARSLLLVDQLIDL
Sequence of ABL1 (P00519 28-1130 limits assumed): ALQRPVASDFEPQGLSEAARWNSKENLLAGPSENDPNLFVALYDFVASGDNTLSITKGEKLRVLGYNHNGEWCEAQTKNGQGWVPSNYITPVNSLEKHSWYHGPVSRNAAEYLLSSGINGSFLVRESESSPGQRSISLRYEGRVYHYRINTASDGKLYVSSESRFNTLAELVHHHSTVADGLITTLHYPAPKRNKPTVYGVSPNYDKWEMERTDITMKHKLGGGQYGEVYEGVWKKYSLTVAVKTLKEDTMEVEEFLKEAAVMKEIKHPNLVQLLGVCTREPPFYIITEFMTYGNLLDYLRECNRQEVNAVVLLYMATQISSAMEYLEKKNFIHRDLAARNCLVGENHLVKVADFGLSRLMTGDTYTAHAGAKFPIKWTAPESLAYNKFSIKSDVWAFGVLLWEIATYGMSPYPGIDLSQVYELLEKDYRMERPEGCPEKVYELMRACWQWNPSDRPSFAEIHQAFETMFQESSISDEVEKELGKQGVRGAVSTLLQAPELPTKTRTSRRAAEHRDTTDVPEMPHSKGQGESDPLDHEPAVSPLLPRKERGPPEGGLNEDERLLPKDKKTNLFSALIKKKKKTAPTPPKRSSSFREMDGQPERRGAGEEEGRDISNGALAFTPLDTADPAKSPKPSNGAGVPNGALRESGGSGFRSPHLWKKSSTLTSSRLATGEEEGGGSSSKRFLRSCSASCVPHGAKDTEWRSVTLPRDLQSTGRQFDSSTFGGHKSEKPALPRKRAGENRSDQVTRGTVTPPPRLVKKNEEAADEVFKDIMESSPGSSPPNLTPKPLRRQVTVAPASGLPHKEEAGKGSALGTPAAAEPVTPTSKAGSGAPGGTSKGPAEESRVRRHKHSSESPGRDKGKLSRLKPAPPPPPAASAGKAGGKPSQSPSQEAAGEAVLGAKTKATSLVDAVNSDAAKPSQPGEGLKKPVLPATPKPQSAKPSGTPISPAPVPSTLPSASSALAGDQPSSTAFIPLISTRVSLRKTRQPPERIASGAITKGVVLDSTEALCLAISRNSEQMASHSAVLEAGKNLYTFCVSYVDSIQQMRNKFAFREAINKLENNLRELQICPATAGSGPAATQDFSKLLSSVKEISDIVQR

`CC(C)N1CCN(Cc2cnc(-c3cc(-c4cccc5[nH]ccc45)cc4[nH]ncc34)o2)CC1` [GSK2269557]: the CATDS in test [1], in test [2], in test [3], in test [4] and in test [5] was 0 throughout.
Regarding `Cn1cnc2c(F)c(Nc3ccc(Br)cc3F)c(C(=O)NOCCO)cc21` [Binimetinib, reference compound], the CATDS in test [1], in test [2], in test [3], in test [4] and in test [5] was 0 each time.
Turning to `Oc1ccc2ncnc(Nc3ccc(OCc4ccccc4)cc3)c2c1` [GI262866A], the CATDS in test [1] was determined as 0; in test [2], 0; in test [3], 0.07628; in test [4] it was 0; in test [5] it was 0. For the same compound, the potency estimated from few doses in test [3] was 830 nM.
For the compound `COc1c(OCCCN2CCOCC2)ccc2c1N=C(NC(=O)c1cnc(N)nc1)N1CCN=C21` [Copanlisib, reference compound], the CATDS in test [1], in test [2], in test [3], in test [4] and in test [5] was 0 each time.
For the compound `CCCNC(=O)c1ccc(Nc2ncc(C(F)(F)F)c(Nc3ccccc3C(C)=O)n2)c(Br)c1` [BI00801818], the CATDS in test [1], in test [2], in test [3], in test [4] and in test [5] was 0 throughout.
Regarding `Cc1cccc(Cn2ccn3c(=O)cc(N4CCOCC4)nc23)c1` [GSK2297542A], the CATDS in test [1], in test [2], in test [3], in test [4] and in test [5] was 0 each time.
`COc1ncc(-c2cc(-c3ncc(CN4C[C@@H](C)O[C@@H](C)C4)o3)c3cn[nH]c3c2)cc1NS(C)(=O)=O` [GSK2292767]: the CATDS in test [1], in test [2], in test [3], in test [4] and in test [5] was 0 throughout.
For `C[C@@H]1CCNC(=O)c2cc3ccc(C(=O)Nc4nc5ccccc5n4CCCN(C)C)cc3n21` [BI00645435], the CATDS in test [1], in test [2], in test [3], in test [4] and in test [5] was 0 throughout.
Consider `COc1cc(Nc2ccnc3ccc(Br)cc23)cc(OC)c1OC` [CA93.0], for which the CATDS in test [1], in test [2], in test [3], in test [4] and in test [5] was 0 each time.
In the case of `O=C(Nc1ccccc1F)NC1CCN(c2ccnc(Nc3ccc(F)cc3)n2)C1` (stereo not drawn) [GSK1379722A], the CATDS in test [1], in test [2], in test [3], in test [4] and in test [5] was 0 each time.
For the compound `Cc1ccc(-n2nc(C(C)(C)C)cc2NC(=O)Nc2ccc(OCCN3CCOCC3)cc2)cc1` [BIRB0876BS], the CATDS in test [1], in test [2], in test [3], in test [4] and in test [5] was 0 in each case.
Regarding `NCCCC(NC(=O)c1cc(Br)c(-c2ccnc3[nH]ccc23)s1)c1ccccc1` (stereo not drawn) [GSK1287544A], the CATDS in test [1], in test [2], in test [3], in test [4] and in test [5] was 0 in each case.
On to `COc1ccc(Nc2nccc(NCCNC(=O)Nc3cc(C)ccc3C)n2)cc1` [GSK1379899A], for which the CATDS in test [1], in test [2], in test [3], in test [4] and in test [5] was 0 in each case. Also, in test [2], the potency estimated from few doses was above 1000 nM.
In the case of `NC(=O)c1cccnc1COc1cc(-c2ccc(N3CCOCC3)nc2)cc2ncccc12` [BI01125081], the CATDS in test [1], in test [2], in test [3], in test [4] and in test [5] was 0 throughout.
For the compound `NC(CNC(=O)c1cc(Br)c(-c2ccnc3[nH]ccc23)s1)c1ccccc1` (stereo not drawn) [GSK1322949A], the CATDS in test [1], in test [2], in test [3], in test [4] and in test [5] was 0 each time. In test [2], the potency estimated from few doses is above 1000 nM.
For the compound `Nc1nc(Nc2ccccc2)cc(-c2ccc3c(N)n[nH]c3c2)n1` [GSK2225749A], the CATDS is recorded as 0 in test [1]; 0.2514 in test [2]; 0 in test [3]; 0 in test [4]; 0 in test [5].
As to `Nc1ncc(-c2ccc3nccc(-c4ccncc4)c3c2)cc1S(=O)(=O)N1CCCCC1` [GSK1693850A], the CATDS in test [1], in test [2], in test [3], in test [4] and in test [5] was 0 in each case.
On to `N#Cc1cccc(C(=O)NC2CCN(c3ccnc(Nc4ccc(F)cc4)n3)C2)c1` (stereo not drawn) [GSK1379708A], for which the CATDS in test [1], in test [2], in test [3], in test [4] and in test [5] was 0 throughout.
Turning to `CN(C)C(=O)O[C@H]1CN[C@H](C#Cc2cc3ncnc(Nc4ccc(OCc5cccc(F)c5)c(Cl)c4)c3s2)C1` [GSK182497A], the CATDS in test [1], in test [2], in test [3], in test [4] and in test [5] was 0 each time.
Take `CNS(=O)(=O)c1ccc(N(C)C)c(Nc2ncnc3cc(OC)c(OC)cc23)c1` [GSK114]: the CATDS in test [1], in test [2], in test [3], in test [4] and in test [5] was 0 each time.
Turning to `Nc1nccc(-c2ccc3c(N)n[nH]c3c2)n1` [GSK1034945A], the CATDS in test [1] amounted to 0; in test [2], 0.08249; in test [3], 0; in test [4], 0; in test [5], 0. For the same compound, in test [2], the potency estimated from few doses was 194 nM.
Take `CCCc1cc(N2CCCN(C)CC2)nc2sc3c(N)ncnc3c12` [BI00604564]: the CATDS in test [1], in test [2], in test [3], in test [4] and in test [5] was 0 in each case. Also, the potency estimated from few doses in test [2] was above 1000 nM.
With `Cc1ccc(NC(=O)c2ccc(Cl)cc2)cc1-c1ccc(C(=O)Nc2ccncc2)cc1` [GSK1398467A], the CATDS in test [1] is given as 0; in test [2] it was 0; in test [3] it was 0.2266; in test [4], 0; in test [5], 0. In addition, the potency estimated from few doses in test [3] is 761 nM.
For the compound `CSc1nn2c(=O)cc(N3CCOCC3)nc2n1Cc1cccc(C(F)(F)F)c1C` [GSK2363608B], the CATDS in test [1], in test [2], in test [3], in test [4] and in test [5] was 0 in each case.
